Common to all, as to assay: NCI tumour cell line growth inhibition, 48 h
Assay [1] deals with NCI-H23 lung.
Assay [2] concerns SK-OV-3 ovarian.
In assay [3] the test system is K-562 leukemia.
Assay [4] has as its system HOP-62 NSCLC.
In assay [5] the test system is HCT-116 colon.
Assay [6] has as its system NCI-H226 lung.
In assay [7] the test system is U251 CNS.
The test system of assay [8] is HT29 colon.
Assay [9] relates to OVCAR-3 ovarian.
Assay [10] concerns NCI/ADR-RES ovarian.

We go through eleven molecules from PubChem BioAssay (NCI).

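Five concentrations, 48 hours, 96-well plates. GI50 is the concentration that inhibits growth by half. Definition used: TGI = concentration required for complete inhibition of growth.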

On to `CC(=O)Nc1ccc(/C=C2\N=C(c3ccccc3)OC2=O)cc1`, for which the TGI in assay [1], in assay [2], in assay [3], in assay [4], in [5] and in assay [6] was greater than 100 µM throughout. The molecule also yielded a TGI in assay [7] greater than 100 µM.
In the case of `COc1ccc2c(c1)[n+](=O)c(C(=O)C/C(=N/NC(=O)C[N+](C)(C)C)C(=O)Nc1cccc(C)c1C)c(C)n2O`, the TGI in assay [1], in assay [2], in [3], in assay [8], in assay [9] and in assay [4] was greater than 100 µM each time. In addition, the TGI in assay [5], in assay [6] and in assay [7] was greater than 100 µM throughout.
Consider `CN(C)C(=O)NC(=S)N(C)C`, for which the TGI in [1] is greater than 100 µM; in assay [2], greater than 100 µM; in [3], greater than 100 µM; in assay [8], greater than 100 µM; in assay [4], 1.52 µM; in assay [5], greater than 100 µM. Further, the TGI in [6] is greater than 100 µM; in assay [7], 14 µM.
Consider `COC(=O)C1C(=O)O[C@@H](c2ccc(OC)c(OC)c2OC)C1C(=O)OC` (mixture of isomers), for which the TGI in assay [1], in assay [2], in assay [3], in assay [8], in assay [9] and in assay [4] was greater than 100 µM in each case. For the same molecule, the TGI in assay [5], in [6] and in assay [7] was greater than 100 µM each time.
As to `O=C(N/C(=C\c1ccccc1Cl)c1nc2ccccc2[nH]1)c1ccccc1`, the TGI in assay [1] is greater than 100 µM; in [2], greater than 100 µM; in assay [3] it was greater than 100 µM; in assay [8], 87.2 µM; in assay [9] it was greater than 100 µM; in assay [7], greater than 100 µM.
Regarding `CCN(CC)CCN1C(=O)C2C3C(=O)CC(C)(CC3C)C2C1=O` (stereo not drawn), the GI50 in assay [1], in assay [2], in assay [3], in [8], in assay [4] and in assay [5] was greater than 100 µM each time. Besides, the GI50 in assay [6], in assay [7] and in [10] was greater than 100 µM in each case. Besides, the TGI in [1], in assay [2], in [3], in [8], in assay [4] and in assay [5] was greater than 100 µM throughout. Moreover, the TGI in assay [6], in assay [7] and in assay [10] was greater than 100 µM in each case.
With `c1ccc(-c2n(Cc3ccc4ccccc4c3)cc[n+]2Cc2ccc3ccccc3c2)cc1`, the GI50 was 0.775 µM in [1], 1.49 µM in assay [2], 0.665 µM in [5] and 13.9 µM in assay [10]. Further, the TGI in assay [1] stood at 2.35 µM; in assay [2], 2.89 µM; in [5], 2.14 µM; in assay [10], 35.4 µM.
For the molecule `CC(=O)[CH-]C(=O)c1ccccc1.CC(=O)[CH-]C(=O)c1ccccc1.CC(C)CCC[C@H](C)C1CCC2[C@@H]3CC=C4C[C@@H]([O-])CC[C@]4(C)C3CC[C@@]21C.CC(C)CCC[C@H](C)C1CCC2[C@@H]3CC=C4C[C@@H]([O-])CC[C@]4(C)C3CC[C@@]21C.Cl.[Ti+4]` (stereo partly drawn), the GI50 in assay [1], in assay [2], in assay [3], in [8], in assay [9] and in assay [4] was greater than 25 µM in each case. The GI50 in assay [5], in [6] and in assay [7] was greater than 25 µM in each case. Also, the TGI in assay [1], in [2], in assay [3], in [8], in assay [9] and in assay [4] was greater than 25 µM each time. Also, the TGI in assay [5], in assay [6] and in assay [7] was greater than 25 µM throughout.
Regarding `Cc1cc(=O)n(-c2c(C)cccc2Cl)c(/C=C(\O)c2ccncc2)n1`, the TGI in [1], in assay [2], in [3], in assay [8], in assay [9] and in assay [4] was greater than 100 µM in each case. Further, the TGI in assay [5], in [6] and in assay [7] was greater than 100 µM in each case.
Consider `CC(=O)OCC1OC(OCc2ccccc2)C(Br)C(OC(C)=O)C1OC(C)=O` (stereo not drawn), for which the TGI in assay [1], in [3], in [8], in assay [9], in assay [4] and in assay [5] was greater than 100 µM throughout. In addition, the TGI in assay [6] and in assay [7] was greater than 100 µM each time.
Consider `O=C(Nc1cccc(-n2cc(-c3ccncc3)c(-c3ccc(O)c(Cl)c3)n2)c1)c1cc(C(F)(F)F)cc(C(F)(F)F)c1`, for which the GI50 in assay [1] is 5.15 µM; in assay [2], 22.8 µM; in assay [3], 2.57 µM; in assay [8], 5.15 µM; in assay [4] it was 17.5 µM; in [5], 2.88 µM. The values for the GI50 in assay [6], in assay [7] and in assay [10] were 10.3 µM, 2.54 µM and 4.72 µM, respectively. The TGI is greater than 50 µM in [1]; greater than 50 µM in [2]; greater than 50 µM in assay [3]; 31.4 µM in assay [8]; greater than 50 µM in assay [4]; greater than 50 µM in assay [5]. For the same molecule, the TGI in assay [6], in assay [7] and in assay [10] was greater than 50 µM throughout.
